Assay results: patent US20260183275A1, “SUBSTITUTED QUINOLONE COMPOUNDS USEFUL AS INHIBITORS OF TLR9” (Bristol-Myers Squibb Company, priority 2022, published 2026)

What was measured:
Format in all cases: cell-based
[1] = molecular target: T1, human TLR8 (Homo sapiens, UniProt Q9NR97); test: TLR8 inhibition reporter assay (HEK-Blue cells, SEAP reporter); conditions: HEK-Blue cells overexpressing human TLR8; stimulated with R848 15.9 μM; SEAP read after 22 hour; dose range 0.05 nM-50 μM
T1 construct: host or cells: HEK-Blue cells
T1 sequence (Q9NR97 27-1041): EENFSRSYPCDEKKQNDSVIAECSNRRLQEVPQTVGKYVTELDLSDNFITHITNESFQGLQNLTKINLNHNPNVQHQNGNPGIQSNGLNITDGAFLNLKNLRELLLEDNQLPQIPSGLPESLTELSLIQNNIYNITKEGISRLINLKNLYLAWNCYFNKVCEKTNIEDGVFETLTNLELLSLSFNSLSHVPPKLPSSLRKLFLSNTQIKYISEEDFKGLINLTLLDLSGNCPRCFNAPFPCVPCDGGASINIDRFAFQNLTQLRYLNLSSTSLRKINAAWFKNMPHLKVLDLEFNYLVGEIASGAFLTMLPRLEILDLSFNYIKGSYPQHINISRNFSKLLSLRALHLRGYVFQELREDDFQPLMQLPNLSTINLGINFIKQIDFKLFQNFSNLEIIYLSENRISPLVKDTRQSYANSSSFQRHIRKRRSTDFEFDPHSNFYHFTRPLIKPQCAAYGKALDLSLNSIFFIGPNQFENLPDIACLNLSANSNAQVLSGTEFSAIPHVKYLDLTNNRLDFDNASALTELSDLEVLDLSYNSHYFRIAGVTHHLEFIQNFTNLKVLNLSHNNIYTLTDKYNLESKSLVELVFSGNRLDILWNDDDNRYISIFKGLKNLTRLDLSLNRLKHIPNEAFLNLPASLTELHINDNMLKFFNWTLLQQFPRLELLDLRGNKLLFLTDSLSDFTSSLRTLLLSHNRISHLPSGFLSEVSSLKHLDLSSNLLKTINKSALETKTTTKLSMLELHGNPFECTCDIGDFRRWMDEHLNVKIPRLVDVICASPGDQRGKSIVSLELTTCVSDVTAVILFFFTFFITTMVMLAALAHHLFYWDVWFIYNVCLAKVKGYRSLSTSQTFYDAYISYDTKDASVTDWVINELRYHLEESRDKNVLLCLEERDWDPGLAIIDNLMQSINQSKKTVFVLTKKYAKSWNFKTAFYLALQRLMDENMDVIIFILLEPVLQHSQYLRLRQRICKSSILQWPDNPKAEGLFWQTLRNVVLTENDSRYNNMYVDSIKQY
Procedure, shortened: (§1)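 HEK-Blue cells with NF-κB/AP-1-driven SEAP pre-treated 30 min with compounds (0.05 nM-50 μM), then stimulated with gardiquimod 7.5 μM (TLR7), R848 15.9 μM (TLR8) or ODN2006 5 nM (TLR9). SEAP read after 22 h at 37° C; % inhibition relative to agonist+DMSO and reference-inhibitor wells.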

[2] = molecular target: T2, human TLR9 (Homo sapiens, UniProt Q9NR96); test: TLR9 inhibition reporter assay (HEK-Blue cells, SEAP reporter); conditions: HEK-Blue cells overexpressing human TLR9; stimulated with ODN2006 5 nM; SEAP read after 22 hour; dose range 0.05 nM-50 μM
T2 construct: host or cells: HEK-Blue cells
T2 sequence (Q9NR96 26-1032): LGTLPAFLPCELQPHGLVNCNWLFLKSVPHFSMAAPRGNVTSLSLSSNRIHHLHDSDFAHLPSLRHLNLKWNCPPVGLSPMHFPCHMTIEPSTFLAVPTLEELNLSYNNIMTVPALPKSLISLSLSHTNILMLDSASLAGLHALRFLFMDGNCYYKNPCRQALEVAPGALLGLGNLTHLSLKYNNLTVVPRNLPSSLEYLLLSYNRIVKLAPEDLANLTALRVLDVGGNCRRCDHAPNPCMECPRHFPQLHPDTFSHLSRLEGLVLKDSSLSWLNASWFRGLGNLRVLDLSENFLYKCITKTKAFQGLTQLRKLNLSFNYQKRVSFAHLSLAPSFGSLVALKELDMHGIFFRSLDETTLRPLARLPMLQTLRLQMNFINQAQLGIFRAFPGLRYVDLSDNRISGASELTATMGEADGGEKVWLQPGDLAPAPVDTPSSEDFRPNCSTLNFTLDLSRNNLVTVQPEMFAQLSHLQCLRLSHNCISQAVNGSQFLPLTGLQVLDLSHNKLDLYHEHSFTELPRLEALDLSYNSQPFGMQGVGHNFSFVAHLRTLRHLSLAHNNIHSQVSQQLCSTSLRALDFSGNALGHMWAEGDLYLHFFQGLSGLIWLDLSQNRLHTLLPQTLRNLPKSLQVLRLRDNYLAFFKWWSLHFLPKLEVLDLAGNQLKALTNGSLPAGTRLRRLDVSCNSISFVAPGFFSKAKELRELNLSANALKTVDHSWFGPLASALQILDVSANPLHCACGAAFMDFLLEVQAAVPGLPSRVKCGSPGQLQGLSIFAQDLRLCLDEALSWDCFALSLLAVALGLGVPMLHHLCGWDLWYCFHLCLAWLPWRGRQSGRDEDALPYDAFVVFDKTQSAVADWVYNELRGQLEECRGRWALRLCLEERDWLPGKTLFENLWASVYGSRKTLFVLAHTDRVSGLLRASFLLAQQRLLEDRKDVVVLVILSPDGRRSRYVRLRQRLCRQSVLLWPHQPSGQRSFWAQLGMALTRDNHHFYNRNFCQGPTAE
Procedure, shortened: as §1

[3] = molecular target: T3, human TLR7 (Homo sapiens, UniProt Q9NYK1); test: TLR7 inhibition reporter assay (HEK-Blue cells, SEAP reporter); conditions: HEK-Blue cells overexpressing human TLR7; stimulated with gardiquimod 7.5 μM; SEAP read after 22 hour; dose range 0.05 nM-50 μM
T3 construct: host or cells: HEK-Blue cells
T3 sequence (Q9NYK1 27-1049): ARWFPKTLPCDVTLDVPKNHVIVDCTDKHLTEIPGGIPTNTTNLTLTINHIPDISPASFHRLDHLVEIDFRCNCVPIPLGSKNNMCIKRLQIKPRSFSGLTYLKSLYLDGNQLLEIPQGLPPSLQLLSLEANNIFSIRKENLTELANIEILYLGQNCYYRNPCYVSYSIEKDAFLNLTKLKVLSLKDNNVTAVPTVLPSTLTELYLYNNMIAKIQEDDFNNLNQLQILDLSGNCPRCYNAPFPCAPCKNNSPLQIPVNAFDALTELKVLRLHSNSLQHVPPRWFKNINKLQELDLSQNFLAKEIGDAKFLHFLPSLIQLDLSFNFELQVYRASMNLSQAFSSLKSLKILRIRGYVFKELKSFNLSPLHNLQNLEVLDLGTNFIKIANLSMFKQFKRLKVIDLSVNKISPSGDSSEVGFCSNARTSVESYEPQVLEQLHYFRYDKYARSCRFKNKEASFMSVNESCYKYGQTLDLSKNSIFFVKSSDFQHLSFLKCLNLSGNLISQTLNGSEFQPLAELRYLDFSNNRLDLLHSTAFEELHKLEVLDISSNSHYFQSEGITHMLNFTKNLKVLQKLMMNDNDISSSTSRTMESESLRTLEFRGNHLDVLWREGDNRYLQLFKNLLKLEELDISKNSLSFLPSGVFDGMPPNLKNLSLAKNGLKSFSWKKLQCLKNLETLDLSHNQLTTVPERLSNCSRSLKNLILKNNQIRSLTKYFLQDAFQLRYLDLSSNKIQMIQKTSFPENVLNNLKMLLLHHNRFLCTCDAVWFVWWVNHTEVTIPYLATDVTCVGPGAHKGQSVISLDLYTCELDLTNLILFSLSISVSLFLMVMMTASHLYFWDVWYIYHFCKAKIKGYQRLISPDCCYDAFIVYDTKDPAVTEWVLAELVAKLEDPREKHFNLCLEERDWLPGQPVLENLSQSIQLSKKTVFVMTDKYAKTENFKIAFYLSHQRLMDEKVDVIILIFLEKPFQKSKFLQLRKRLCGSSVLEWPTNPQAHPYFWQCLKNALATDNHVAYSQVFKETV
Procedure, shortened: as §1

Row | IC50 [1] [nM] | IC50 [2] [nM] | IC50 [3] [nM] | Compound
1 | ≥ 50000 | 689 | ≥ 50000 | O=c1[nH]c2ccc(-c3ccc(C4CCN(C5COC5)CC4)cc3)cc2cc1-c1ccc2nccnc2c1 [Example 94, 6-{4-[1-(oxetan-3-yl)piperidin-4-yl]phenyl}-3-(quinoxalin-6-yl)-1,2-dihydroquinolin-2-one]
2 | 26700 | 1430 | ≥ 50000 | CS(=O)(=O)Nc1cccc(-c2cc3cc(-c4ccc(C5CCN(C6COC6)CC5)cc4)ccc3[nH]c2=O)c1 [Example 98, N-[3-(6-{4-[1-(oxetan-3-yl)piperidin-4-yl]phenyl}-2-oxo-1,2-dihydroquinolin-3-yl)phenyl]methanesulfonamide]
3 | ≥ 50000 | 1650 | 16700 | N#Cc1cccc(-c2cc3cc(-c4ccc(C5CCN(C6COC6)CC5)cc4)ccc3[nH]c2=O)c1 [Example 99, 3-(6-{4-[1-(oxetan-3-yl)piperidin-4-yl]phenyl}-2-oxo-1,2-dihydroquinolin-3-yl) benzonitrile]
4 | 1900 | 2270 | ≥ 50000 | Cn1c(=O)c(-c2ccccc2)cc2cc(-c3ccc(C4CCN(C5COC5)CC4)cc3)ccc21 [Example 100, 1-methyl-6-{4-[1-(oxetan-3-yl)piperidin-4-yl]phenyl}-3-phenyl-1,2-dihydroquinolin-2-one]

More lines, now with the values behind:

Row | Compound | IC50 [1] [nM] | IC50 [2] [nM] | IC50 [3] [nM]
5 | CCc1c(-c2ccc(OC)c(OC)c2)c(=O)[nH]c2ccc(-c3ccc(N4CCN(C(C)C)CC4)cc3)cc12 [Example 95, 3-(3,4-dimethoxyphenyl)-4-ethyl-6-{4-[4-(propan-2-yl)piperazin-1-yl]phenyl}-1,2-dihydroquinolin-2-one] | 731 | 691 | 5890
6 | CC(C)N1CCC(c2ccc(-c3ccc4c(c3)cc(-c3ccc(N(C)C)cc3)c(=O)n4C)cc2)CC1 [Example 96, 3-[4-(dimethylamino)phenyl]-1-methyl-6-{4-[1-(propan-2-yl)piperidin-4-yl]phenyl}-1,2-dihydroquinolin-2-one] | ≥ 50000 | 1430 | 17300
7 | CN1CCC(c2ccc3[nH]c(=O)c(-c4ccc(S(C)(=O)=O)cc4)cc3c2)CC1 [Example 97, 3-(4-methanesulfonylphenyl)-6-(1-methylpiperidin-4-yl)-1,2-dihydroquinolin-2-one] | 20100 | 960 | 2510
8 | CCc1c(-c2ccc(S(C)(=O)=O)cc2)c(=O)n(C)c2ccc(-c3ccc(C4CCN(C5COC5)CC4)cc3)cc12 [Example 101, 4-ethyl-3-(4-methanesulfonylphenyl)-1-methyl-6-{4-[1-(oxetan-3-yl)piperidin-4-yl]phenyl}-1,2-dihydroquinolin-2-one] | 1340 | 2370 | ≥ 50000
